16 compounds from patent US10087188B2, “Benzamide imidazopyrazine Btk inhibitors” (MERCK SHARP & DOHME CORP., priority 2014, dated 2018) can be followed below.

Assay [1] concerns the target BTK enzyme (recombinant full-length BTK, hBTK) (Homo sapiens (Human), UniProt Q06187). Description: Btk enzyme activity assay, LANCE TR-FRET. The format is biochemical. The following applies: 50 pM hBTK, 2 μM biotin-A5-peptide, 25 μM ATP; 60 minute compound & enzyme incubation; read-out: BTK binding IC50. Here is the method: Btk Enzyme Activity Assay Methods
BTK enzymatic activity was determined with the LANCE (Lanthanide Chelate Excite) TR-FRET (Time-resolved fluorescence resonance energy transfer) assay. […] After 60 minutes incubation with detection reagents, reaction plates were read on a PerkinElmer EnVision plate reader using standard TR-FRET protocol.
For orientation: TR-FRET usually uses a lanthanide donor and a delayed reading to cut background.

The test system of assay [2] is HeLa cells. Description: [3H] Adenosine uptake assay. The format is cell-based. The following applies: accumulation of tritiated adenosine into HeLa cells, compound concentration range 10 μM to 0.032 nM, read-out: ADU inhibition IC50 (adenosine uptake inhibition potency). Here is the method: Compounds are also screen in an adenosine uptake functional cellular assay using the protocol described below:
[^3H] Adenosine Uptake Assay Methods
Adenosine uptake activity was determined by monitoring the accumulation of tritiated adenosine into HeLa cells (ATCC catalog #CCL-2) using a PMT-based radiometric detection instrument. […] These cells were incubated overnight at 37° C. in a humidified atmosphere with 5% (v/v) CO2. After this time the growth medium was removed and replaced with 40 μL assay medium comprising: Hanks balanced salts solution (HBSS; Thermo Fisher Catalog #SH30268.01)+5% (v/v) FBS. Compound stock solutions in DMSO were diluted in assay medium to 2.5× final compound concentration maintaining a constant DMSO concentration of 0.25% (v/v). 40 μL of compound in assay medium was dispensed into individual wells of the Cytostar-T plates and the plates were incubated for 30 minutes under ambient laboratory conditions. Following this incubation, 20 μL of 500 nM[^3H] adenosine (American Radiolabeled Chemicals Inc. Catalog #ART0287) in assay medium was added and incubated for a further 60 minutes under ambient laboratory conditions. The amount of radiolabel accumulation was then determined using a Perkin Elmer Topcount NXT microplate reader. In brief, HeLa cells adhere to the bottom of the Cytostar-T plate, uptake of [^3H]adenosine into these cells brings the radiolabel into sufficient proximity to excite the scintillant in the base of the plates. These events are captured by single PMT, time-resolved coincidence counting. IC50 values were determined by 4 parameter robust fit of counts per second values vs. (Log10) compound concentrations.

The structures appear in SMILES notation. Like-named read-outs stand apart in the source and are kept apart here.

Chain of BTK enzyme (recombinant full-length BTK, hBTK) (Q06187 whole entry): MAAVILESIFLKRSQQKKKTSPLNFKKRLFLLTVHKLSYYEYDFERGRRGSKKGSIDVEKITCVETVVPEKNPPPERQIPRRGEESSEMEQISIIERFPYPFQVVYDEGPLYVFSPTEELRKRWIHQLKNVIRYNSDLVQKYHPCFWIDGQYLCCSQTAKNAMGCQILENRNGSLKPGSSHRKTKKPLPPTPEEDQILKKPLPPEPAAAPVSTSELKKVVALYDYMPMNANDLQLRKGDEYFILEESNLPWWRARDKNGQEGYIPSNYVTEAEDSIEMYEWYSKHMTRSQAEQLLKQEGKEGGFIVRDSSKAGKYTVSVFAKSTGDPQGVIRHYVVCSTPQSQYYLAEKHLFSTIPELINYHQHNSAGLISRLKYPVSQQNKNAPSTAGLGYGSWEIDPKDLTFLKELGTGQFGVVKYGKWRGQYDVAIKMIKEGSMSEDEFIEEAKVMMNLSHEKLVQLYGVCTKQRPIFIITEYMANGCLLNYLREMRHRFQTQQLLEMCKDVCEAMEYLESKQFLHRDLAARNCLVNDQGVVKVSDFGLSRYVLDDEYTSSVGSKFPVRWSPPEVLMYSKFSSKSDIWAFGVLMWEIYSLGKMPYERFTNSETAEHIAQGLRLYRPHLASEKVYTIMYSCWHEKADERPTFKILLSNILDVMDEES

What is called IC50 is the point on the concentration scale where inhibition reaches its midpoint. For the compound `CCOc1cc(C(=O)Nc2cc(C3CC3)ccn2)cc(F)c1-c1nc([C@@H]2CC[C@](C)(C(=O)O)C2(C)C)n2ccnc(N)c12` [Example 121, (1S,3R)-3-(8-amino-1-{4-[(4-cyclopropylpyridin-2-yl)carbamoyl]-2-ethoxy-6-fluorophenyl}imidazo [1,5-a]pyrazin-3-yl)-1,2,2-trimethylcyclopentane carboxylic acid], the IC50 in assay [1] was found to be 0.37 nM; in assay [2] (Homo sapiens, HeLa), 7320 nM.

`CC(C)(C(=O)O)C1CCC(c2nc(-c3ccc(C(=O)Nc4cc(C(F)(F)F)ccn4)cc3)c3c(N)nccn23)C1` (stereo not drawn) [Example 97, 2-{3-[8-amino-1-(4-{[4-(trifluoromethyl)pyridin-2-yl]carbamoyl}phenyl)imidazo[1,5-a]pyrazin-3-yl]cyclopentyl}-2-methylpropanoic acid]: the IC50 amounted to 0.87 nM in assay [1] and 7530 nM in assay [2].

With `CCOc1cc(C(=O)Nc2cc(C(F)(F)F)ccn2)ccc1-c1nc([C@@H]2CC[C@](C(=O)O)(C(C)C)C2)n2c(Cl)cnc(N)c12` [Example 112, (1R,3R)-3-[8-amino-5-chloro-1-(2-ethoxy-4-{[4-(trifluoromethyl)pyridin-2-yl]carbamoyl}phenyl)imidazo[1,5-a]pyrazin-3-yl]-1-(1-methylethyl) cyclopentane-carboxylic acid], the IC50 worked out at 21.7 nM in assay [1] and 10000 nM in assay [2] (Homo sapiens, HeLa).

Take `CCOc1cc(C(=O)Nc2cc(C3CC3)ccn2)cc(F)c1-c1nc([C@@]2(C)CC[C@](C)(C(=O)O)C2)n2ccnc(N)c12` [Example 123, (1S,3S)-3-(8-amino-1-{4-[(4-cyclopropylpyridin-2-yl)carbamoyl]-2-ethoxy-6-fluorophenyl}imidazo [1,5-a]pyrazin-3-yl)-1,3-dimethylcyclopentane carboxylic acid]: the IC50 was 0.57 nM in assay [1] and 10000 nM in assay [2] (Homo sapiens, HeLa).

As to `CCOc1cc(C(=O)Nc2cc(C(F)(F)F)ccn2)ccc1-c1nc(C2(C)CCC(C)(C(=O)O)CC2)n2ccnc(N)c12` (stereo not drawn) [Example 78, 4-[8-amino-1-(2-ethoxy-4-{[4-(trifluoromethyl)pyridin-2-yl]carbamoyl}phenyl)imidazo[1,5-a]pyrazin-3-yl]-1,4-dimethylcyclohexane-carboxylic acid], the IC50 in assay [1] worked out at 1.3 nM; in assay [2] (Homo sapiens, HeLa), 5140 nM.

As for `CCOc1cc(C(=O)Nc2cc(C(F)(F)F)ccn2)ccc1-c1nc(C23CCC(C(=O)O)(CC2=O)C(=O)C3)n2ccnc(N)c12` (stereo not drawn) [Example 64, 4-[8-amino-1-(2-ethoxy-4-{[4-(trifluoromethyl)pyridin-2-yl]carbamoyl}phenyl)imidazo[1,5-a]pyrazin-3-yl]-2,5-dioxobicyclo[2.2.2] octane-1-carboxylic acid], the IC50 amounted to 2.6 nM in assay [1] and 10000 nM in assay [2] (Homo sapiens, HeLa).

Take `CC(C)(C(=O)O)N1CC(=O)N2C[C@H](c3nc(-c4ccc(C(=O)Nc5cc(C(F)(F)F)ccn5)cc4)c4c(N)nccn34)CC[C@H]2C1` [Example 43, 2-{(7R,9aS)-7-[8-amino-1-(4-{[4-(trifluoromethyl)pyridin-2-yl]carbamoyl}phenyl)imidazo[1,5-a]pyrazin-3-yl]-4-oxooctahydro-2H-pyrido[1,2-a]pyrazin-2-yl}-2-methylpropanoic acid]: the IC50 came out at 0.41 nM in assay [1] and 4190 nM in assay [2] (Homo sapiens, HeLa).

As for `COc1cc(C(=O)Nc2cc(C(F)(F)F)ccn2)ccc1-c1nc(C23C4C5C2C2C3C4C52C(=O)O)n2ccnc(N)c12` (stereo not drawn) [Example 75, 4-(8-amino-1-(2-methoxy-4-((4-(trifluoromethyl)pyridin-2-yl)carbamoyl)phenyl)imidazo[1,5-a]pyrazin-3-yl)cubane-1-carboxylic acid], the concentration for half-maximal inhibition (IC50) is 0.56 nM in assay [1] and 742 nM in assay [2] (Homo sapiens, HeLa).

Take `C[C@H]1CO[C@@H](c2nc(-c3ccc(C(=O)Nc4cc(C(F)(F)F)ccn4)cc3F)c3c(N)ncc(Cl)n23)CN1[C@H]1CC[C@](C)(C(=O)O)CC1` [Example 200, trans-4-{(2R,5S)-2-[8-amino-5-chloro-1-(2-fluoro-4-{[4-(trifluoromethyl)pyridin-2-yl]carbamoyl}phenyl)imidazo [1,5-a]pyrazin-3-yl]-5-methylmorpholin-4-yl}-1-methylcyclohexanecarboxylic acid]: the IC50 in assay [1] turned out to be 0.42 nM; in assay [2] (Homo sapiens, HeLa), 1690 nM.

With `C[C@@]1(C(=O)O)CCN(c2nc(-c3ccc(C(=O)Nc4cc(C(F)(F)F)ccn4)cc3)c3c(N)nccn23)C1` [Example 44, (3R)-1-[8-amino-1-(4-{[4-(trifluoromethyl)pyridin-2-yl]carbamoyl}phenyl)imidazo[1,5-a]pyrazin-3-yl]-3-methylpyrrolidine-3-carboxylic acid], the IC50 in assay [1] amounted to 1.8 nM; in assay [2] (Homo sapiens, HeLa) it was 8740 nM.

Regarding `CCOc1cc(C(=O)Nc2cc(C(F)(F)F)ccn2)ccc1-c1nc(C23CCC(C(=O)O)(CC2)C3)n2ccnc(N)c12` [Example 103, 4-[8-amino-1-(2-ethoxy-4-{[4-(trifluoromethyl)pyridin-2-yl]carbamoyl}phenyl)imidazo[1,5-a]pyrazin-3-yl]bicyclo[2.2.1] heptane-1-carboxylic acid], the IC50 in assay [1] came out at 0.52 nM; in assay [2] (Homo sapiens, HeLa) it was 1880 nM.

Take `COc1cc(C(=O)Nc2cc(C(F)(F)F)ccn2)cc(F)c1-c1nc([C@@H]2CC[C@](C)(C(=O)O)C2(C)C)n2ccnc(N)c12` [Example 115, (1S,3R)-3-[8-amino-1-(2-fluoro-6-methoxy-4-{[4-(trifluoromethyl)pyridin-2-yl]carbamoyl}phenyl)imidazo[1,5-a]pyrazin-3-yl]-1,2,2-trimethylcyclopentane carboxylic acid]: the IC50 is 0.26 nM in assay [1] and 8840 nM in assay [2] (Homo sapiens, HeLa).

`COc1cc(C(=O)Nc2cc(C(F)(F)F)ccn2)ccc1-c1nc([C@H]2CN(C3CCC(C)(C(=O)O)CC3)CCO2)n2ccnc(N)c12` (stereo partly drawn) [Example 180, 4-{(2R)-2-[8-amino-1-(2-methoxy-4-{[4-(trifluoromethyl)pyridin-2-yl]carbamoyl}phenyl)imidazo [1,5-a]pyrazin-3-yl]morpholin-4-yl}-1-methylcyclohexanecarboxylic acid]: the IC50 in assay [1] stood at 1.3 nM; in assay [2] (Homo sapiens, HeLa), 6420 nM; in assay [2], 3940 nM.

As for `C[C@@]1(C(=O)O)CCC[C@H](c2nc(-c3ccc(C(=O)Nc4cc(C5CC5)ccn4)cc3F)c3c(N)nccn23)C1` [Example 160, (1R,3S)-3-(8-amino-1-{4-[(4-cyclopropylpyridin-2-yl)carbamoyl]-2-fluorophenyl}imidazo [1,5-a]pyrazin-3-yl)-1-methylcyclohexane-carboxylic acid], the IC50 in assay [1] amounted to 0.96 nM; in assay [2] (Homo sapiens, HeLa), 4510 nM.

For the compound `Nc1nccn2c([C@@H]3CCN[C@H](C(=O)O)C3)nc(-c3ccc(C(=O)Nc4cc(C(F)(F)F)ccn4)cc3)c12` [Example 32, (2S,4R)-4-[8-amino-1-(4-{[4-(trifluoromethyl)pyridin-2-yl]carbamoyl}phenyl)imidazo[1,5-a]pyrazin-3-yl]piperidine-2-carboxylic acid], the IC50 in assay [1] is 2.2 nM; in assay [2] (Homo sapiens, HeLa), 5910 nM.

On to `CCOc1cc(C(=O)Nc2cc(C(F)(F)F)ccn2)ccc1-c1nc([C@H]2CC[C@@](C(=O)O)(C(C)C)C2)n2ccnc(N)c12` [Example 63, (1S,3S)-3-[8-amino-1-(2-ethoxy-4-{[4-(trifluoromethyl)pyridin-2-yl]carbamoyl}phenyl)imidazo[1,5-a]pyrazin-3-yl]-1-(1-methylethyl) cyclopentane-carboxylic acid], for which the IC50 in assay [1] worked out at 0.58 nM; in assay [2] (Homo sapiens, HeLa), 8550 nM.
